Test results published in patent publication US12622913B2, “Folate salts for medical use” (APROFOL AG, priority 2018, dated 2026).

Columns and labels:
[1] = cited from earlier work
[2] = Solubility determination of selected folate salts in solvents; type: physicochemical; details: mass-% (m/m), 20° C.; for Solubility in DMSO: solvent DMSO; for Solubility in EtOH: solvent EtOH; for Solubility in MeOH: solvent MeOH; for Solubility in Glycerine: solvent glycerine; for Solubility in i-PrOH: solvent i-PrOH; for Solubility in n-PrOH: solvent n-PrOH
Protocol: Solubility determination of selected folate salts was in general performed as follows:
A quantity of the salt corresponding to the expected solubility (between 1-100 mg) was provided and mixed with increments of the respective solvent until a solution was formed.

[3] = glycerine; previous data confirmed by the test; cited from earlier work

Row | Compound | Solubility in dilute acid or dilute alkali ([1]; dilute acid or dilute alkali) | Solubility in organic solvents ([1]; organic solvents) | Solubility in water ([1]; water at 25° C.) | Solubility in DMSO [2] [%] | Solubility in EtOH [2] [%] | Solubility in MeOH [2] | Solubility in Glycerine [2] [%] | Solubility in i-PrOH [2] [%] | Solubility in n-PrOH [2] [%] | Solubility of calcium salt, previous data [3]
1 | 5-methyl-tetrahydrofolic acid glucosamine salt [5-MTHF-glucosamine] | soluble | insoluble | very soluble |  |  |  |  |  |  | 
2 | 5-Methyl-(6S)-tetrahydrofolic acid di acetylcholine salt [MTHF di acetylcholine] |  |  |  | 47.62 | 50.00 | >>50% | 24.10 | 50.00 | 50.00 | 
3 | CN1c2c([nH]c(N)nc2=O)NC[C@@H]1CNc1ccc(C(=O)N[C@@H](CCC(=O)[O-])C(=O)[O-])cc1.[Ca+2] [calcium salt of 5-methyl-(6S)-tetrahydrofolic acid] |  |  |  |  |  |  |  |  |  | approximately 1%
4 | 5-Formyl-(6S)-tetrahydrofolic acid di acetylcholine salt [FTHF di acetylcholine] |  |  |  | 0.25 | 55.80 | 55.80% | 24.10 | 0.50 | 55.90 | 
